Test results as given in patent US20220354849A1, “COMPOSITION FOR PREVENTING OR TREATING METABOLIC LIVER DISEASE” (STANDIGM INC., priority 2019, published 2022).
“And” between values parts separate entries of the source, which are not always exact repeats. Equal values may be shown once.

How the values were obtained:
NASH model mice [1] = experiment: NASH model mice (STZ + high-fat diet), oral trametinib study: liver histology, NAFLD activity score, fibrosis area, liver weight; type: in vivo, mouse (C57BL/6); set-up: fibrosis area score (sirius red-positive area): unit not given here; settings: for fibrosis area score (sirius red-positive area) / NAFLD activity score (NAS): telmisartan 10 mg/kg p.o., once daily 6 to 9 weeks of age; for fibrosis area score (sirius red-positive area): vehicle 0.69±0.13; for NAFLD activity score (NAS): vehicle 4.29±0.49
Source text: (§1) Pathogen-free C57BL/6 mice on the 14th day of pregnancy were obtained from Japan SLC, Inc. (Japan).
(§2) NASH was established in male mice by a single subcutaneous injection of […] streptozotocin (STZ, Sigma, USA) 2 days after birth and feeding with a high-fat diet (CLEA Japan Inc., Japan) ad libitum after 4 weeks of age (day 28±2).
In order to determine a safe oral administration dose of trametinib, as in Example 2, the NASH mice in Example 1 were randomly divided into 3 groups of 7 or 8 mice.Thereafter, the mice of 3 groups were orally administered with the following compounds at about […].
Group 1 (vehicle administration group:negative control group): 7 NASH mice were orally administered with a vehicle (1% DMSO in saline) in a volume of 10 mL/kg once daily from 6 weeks to 9 weeks of age.
Group 2 (telmisartan administration group:positive control group): 8 NASH mice were orally administered with purified water supplemented with telmisartan at a dose of 10 mg/kg (in a volume of 10 mL/kg) once daily from 6 weeks to 9 weeks of age.
Group 3 (trametinib administration group:experimental group): 8 NASH mice were orally administered with a vehicle supplemented with trametinib at a dose of 0.2 mg/kg (in a volume of 10 mL/kg) once daily from 6 weeks to 9 weeks of age.
(§3) The body weight of each mouse was measured daily during the administration period, and the survival rate, clinical symptoms, and behaviors of each mouse were monitored daily.
For histological analysis of liver tissue, mice in Groups 1 to 3 of Example 5 were sacrificed at 9 weeks of age, and then H&E staining, NAFLD activity score measurement, and sirius red staining were performed according to the method of Example 3.
The NAFLD activity score for liver tissue was estimated according to the method of Example 3-2.
According to the method of Example 3-4, a percentage of a fibrosis area due to inflammation and a value of a sirius red-positive area were each estimated through sirius red staining.
Statistical analysis of the data of the Examples above was performed using the Bonferroni Multiple Comparison Test. p<0.05 was regarded as statistically significant.

NASH model mice [2] = experiment: NASH model mice (STZ + high-fat diet), intraperitoneal trametinib study: liver histology, NAFLD activity score, fibrosis area, liver weight; type: in vivo, mouse (C57BL/6); set-up: key to NAFLD activity score (NAS): NAS: sum of steatosis, inflammation, ballooning scores (Kleiner criteria); key to steatosis score / ballooning score: severity score per Kleiner's criteria on H&E sections; fibrosis area score (sirius red-positive area): unit not given here; settings: for fibrosis area score (sirius red-positive area) / NAFLD activity score (NAS): telmisartan 10 mg/kg p.o., once daily 6 to 9 weeks of age; for fibrosis area score (sirius red-positive area): vehicle 0.89±0.19; for NAFLD activity score (NAS): vehicle 4.38±0.52
Source text: as §1, §2
On the day before the start of administration based on the body weight of mice, the NASH mice at 6 weeks of age (day 42±2) prepared in Example 1 were randomly divided into 3 groups of 8 mice.
The present inventors selected trametinib as a substance expected to have a therapeutic effect on non-alcoholic steatohepatitis through a screening method using artificial intelligence (AI) deep learning technology. In order to identify whether the substance has an effect on non-alcoholic steatohepatitis, the 3 groups of mice were each intraperitoneally or orally administered with the following compounds at an amount of about […]. As the negative control group of trametinib in the present invention, the vehicle administration group was treated with a solvent of the same amount used for compound dissolution. Telmisartan (Boehringer Ingelheim GmbH, Germany) was used in the positive control group. The telmisartan is a compound which has anti-NASH, anti-fibrosis, and anti-inflammatory effects in NASH and in a liver disease animal model related to NASH.
Group 1 (vehicle administration group: negative control group): 8 NASH mice were intraperitoneally administered with a vehicle (4% DMSO in saline) in a volume of 5 mL/kg once daily from 6 weeks to 9 weeks of age.
Group 2 (telmisartan administration group: positive control group): 8 NASH mice were orally administered with purified water supplemented with telmisartan at a dose of 10 mg/kg once daily from 6 weeks to 9 weeks of age.
Group 3 (trametinib administration group: experimental group): 8 NASH mice were intraperitoneally administered with a vehicle supplemented with trametinib at a dose of 2 mg/kg once daily from 6 weeks to 9 weeks of age.
as §3
For histological analysis of liver tissue, mice in Groups 1 to 3 were sacrificed at 9 weeks of age, and the liver was excised therefrom.
For H&E staining, after sectioning liver tissue, a liver tissue slide fixed with paraffin was immersed in a xylene solution for 3 minutes to remove the paraffin. Thereafter, in order to remove the xylene, the liver tissue slide was immersed in 100% ethanol for 3 minutes and then hydrated with distilled water. Subsequently, the liver tissue slide was immersed in a hematoxylin solution for 5 to 10 minutes and then hydrated with distilled water for 5 minutes, followed by quickly immersing it twice in a 1% HCl solution, and then hydrating with distilled water. Then, the liver tissue slide was immersed in a 1% ammonia solution for 2 minutes to stain the tissue blue. Thereafter, the liver tissue stained blue was immersed in an eosin solution for 2 minutes, followed by immersing the resultant in ethanol for about 3 to 5 minutes. Lastly, the liver tissue was immersed in a xylene solution, whereupon the thus-stained liver fragment was observed under a microscope.
The NAFLD activity score (NAS) is a combined value obtained by considering each condition of steatosis, inflammation, and ballooning, which are observed in a liver section stained with H&E. The NAFLD score was calculated according to Kleiner's criteria (Kleiner DE et al., 2005).
Steatosis, inflammation, and ballooning scores were determined according to severity of symptoms based on observation in H&E-stained liver sections.
For sirius red staining, a sirius red reagent was maintained in an equilibrium state and stirred gently. […]

[3] = trametinib 0.2 mg/kg p.o. once daily, 6 to 9 weeks of age
[4] = trametinib 2 mg/kg i.p. once daily, 6 to 9 weeks of age

CCCc1nc2c(C)cc(-c3nc4ccccc4n3C)cc2n1Cc1ccc(-c2ccccc2C(=O)O)cc1 [telmisartan]
fibrosis area score (sirius red-positive area) (NASH model mice [1]; trametinib 0.2 mg/kg p.o.): 0.44±0.06 and 0.4
NAFLD activity score (NAS) (NASH model mice [1]; trametinib 0.2 mg/kg p.o.): 2.25±0.46
number of subjects with a steatosis score of 1 (NASH model mice [2]; telmisartan 10 mg/kg p.o. once daily, 6 to 9 weeks of age, 8 mice, vehicle 6 subjects): 1
fibrosis area score (sirius red-positive area) (NASH model mice [2]; trametinib 2 mg/kg i.p.): 0.40±0.15 and 0.4
NAFLD activity score (NAS) (NASH model mice [2]; trametinib 2 mg/kg i.p.): 2.75±0.46

CC(=O)Nc1cccc(-n2c(=O)n(C3CC3)c(=O)c3c(Nc4ccc(I)cc4F)n(C)c(=O)c(C)c32)c1 [trametinib, N—(3—{3—cyclopropyl—5-[(2-fluoro-4-iodophenyl)amino]-6,8-dimethyl-2,4,7-trioxo-3 ,4,6,7-tetrahydropyrido [4,3-d]pyrimidin-1(2H)-yl}phenyl)acetamide]
pathological conditions (sirius red staining) compared to vehicle administration group (NASH model mice [1]; [3]): improved
pathological conditions of liver tissue (H&E staining) compared to vehicle administration group (NASH model mice [1]; [3]): improved
steatosis score (NASH model mice [1]; trametinib 0.2 mg/kg p.o. once daily, 6 to 9 weeks of age, mean ± standard deviation, vehicle 0.86±0.38): 0.38±0.52 and 0.4
inflammation score (NASH model mice [1]; trametinib 0.2 mg/kg p.o. once daily, 6 to 9 weeks of age, vehicle 2.71±0.49): 1.75±0.71 and 1.8
liver-to-body weight ratio (NASH model mice [1]; trametinib 0.2 mg/kg p.o. once daily, 6 to 9 weeks of age, vehicle 8.7±0.8%): 7.4±0.8%
average liver weight (NASH model mice [1]; trametinib 0.2 mg/kg p.o. once daily, 6 to 9 weeks of age, vehicle 1776±189 mg): 1466 ± 169 mg
number of subjects with a steatosis score of 1 (NASH model mice [1]; trametinib 0.2 mg/kg p.o. once daily, 8 mice, vehicle 6 subjects): 3
fibrosis area score (sirius red-positive area) (NASH model mice [1]; trametinib 0.2 mg/kg p.o.): 0.34±0.15 and 0.3
NAFLD activity score (NAS) (NASH model mice [1]; trametinib 0.2 mg/kg p.o.): 2.88±1.13
percentage of fibrosis area compared to vehicle administration group (NASH model mice [1]; trametinib 0.2 mg/kg p.o., sirius red staining): reduced
steatosis score (NASH model mice [2]; trametinib 2 mg/kg i.p. once daily from 6 to 9 weeks of age, H&E liver sections, vehicle average 0.8): 0
fibrosis (sirius red staining) compared to vehicle administration group (NASH model mice [2]; [4]): alleviated
pathological conditions of liver tissue (H&E staining) compared to vehicle administration group (NASH model mice [2]; [4]): improved
reduction of average liver weight compared to vehicle administration group (NASH model mice [2]; [4]): 40%
subjects with a ballooning score of 0, share of total number of subjects (NASH model mice [2]; [4]): 100%
number of subjects with a ballooning score of 0 (NASH model mice [2]; trametinib 2 mg/kg i.p. once daily, 6 to 9 weeks of age, 8 mice): eight
ballooning score (NASH model mice [2]; trametinib 2 mg/kg i.p. once daily, 6 to 9 weeks of age, all subjects): 0
liver-to-body weight ratio (NASH model mice [2]; trametinib 2 mg/kg i.p. once daily, 6 to 9 weeks of age, vehicle 7.0±0.8%): 5.3±0.96%
average liver weight (NASH model mice [2]; trametinib 2 mg/kg i.p. once daily, 6 to 9 weeks of age, vehicle 1444±106 mg): 873 ± 218 mg
fibrosis area score (sirius red-positive area) (NASH model mice [2]; trametinib 2 mg/kg i.p.): 0.50±0.13 and 0.5
NAFLD activity score (NAS) (NASH model mice [2]; trametinib 2 mg/kg i.p.): 2.63±0.52
percentage of fibrosis area compared to vehicle administration group (NASH model mice [2]; trametinib 2 mg/kg i.p., sirius red staining, p<0.0001): remarkable decrease
